# According to the kinase profiling compilation of Christmann-Franck et al. (2016):
# “And” between values parts separate entries of the source, which are not always exact repeats. Identical values can stand only once.
# How the values were obtained:
# Assay in all cases: KINOMEscan competition binding
# Settings in all cases: compound 10.0 µM
# [1] = target: MYLK2 (human) (UniProt Q9H1R3)
# [2] = target: WEE2 (human) (UniProt P0C1S8)
# [3] = target: TXK (human) (UniProt P42681)
# [4] = target: TAOK1 (human) (UniProt Q7L7X3)
# [5] = target: MAP2K2 (human) (UniProt P36507)
# [6] = target: DDR2 (human) (UniProt Q16832)
# [7] = target: LIMK2 (human) (UniProt P53671)
# [8] = target: PRKAA2 (human) (UniProt P54646)
# [9] = target: CSF1R (human) (UniProt P07333)
# [10] = target: STK10 (human) (UniProt O94804)
# [11] = target: IKBKE (human) (UniProt Q14164)
# [12] = target: RPS6KA4 KD1 (human) (UniProt O75676)
# [13] = target: PRKD1 (human) (UniProt Q15139)
# [14] = target: JAK3 JH1 catalytic (human) (UniProt P52333)
# [15] = target: TGFBR1 (human) (UniProt P36897)
# [16] = target: JAK2 JH1 catalytic (human) (UniProt O60674)
# [17] = target: MLTK (human) (UniProt Q9NYL2)
# [18] = tested on: EGFR (human), P00533 [747-751 del / S ins]
# [19] = target: EPHB6 (human) (UniProt O15197)
# [20] = target: PRKACB (human) (UniProt P22694)
# [21] = target: MKNK2 (human) (UniProt Q9HBH9)
# [22] = target: MARK3 (human) (UniProt P27448)
# [23] = target: MAP4K5 (human) (UniProt Q9Y4K4)
# [24] = target: MAP4K3 (human) (UniProt Q8IVH8)
# [25] = target: TAOK3 (human) (UniProt Q9H2K8)
# [26] = target: EPHA3 (human) (UniProt P29320)
# [27] = target: JAK1 JH2 pseudokinase (human) (UniProt P23458)
# [28] = tested on: FLT3 (human), P36888 [D835H]
# [29] = target: ITK (human) (UniProt Q08881)
# [30] = target: PIM3 (human) (UniProt Q86V86)
# [31] = target: SRC (human) (UniProt P12931)
# [32] = target: MAST1 (human) (UniProt Q9Y2H9)
# [33] = target: MAPK1 (human) (UniProt P28482)
# [34] = target: AKT1 (human) (UniProt P31749)
# [35] = target: FLT1 (human) (UniProt P17948)
# [36] = target: EPHB3 (human) (UniProt P54753)
# [37] = tested on: EGFR (human), P00533 [752-759 del]
# [38] = target: CAMK1G (human) (UniProt Q96NX5)
# Chain of RPS6KA4 KD1 (human) (O75676 whole entry, looked up): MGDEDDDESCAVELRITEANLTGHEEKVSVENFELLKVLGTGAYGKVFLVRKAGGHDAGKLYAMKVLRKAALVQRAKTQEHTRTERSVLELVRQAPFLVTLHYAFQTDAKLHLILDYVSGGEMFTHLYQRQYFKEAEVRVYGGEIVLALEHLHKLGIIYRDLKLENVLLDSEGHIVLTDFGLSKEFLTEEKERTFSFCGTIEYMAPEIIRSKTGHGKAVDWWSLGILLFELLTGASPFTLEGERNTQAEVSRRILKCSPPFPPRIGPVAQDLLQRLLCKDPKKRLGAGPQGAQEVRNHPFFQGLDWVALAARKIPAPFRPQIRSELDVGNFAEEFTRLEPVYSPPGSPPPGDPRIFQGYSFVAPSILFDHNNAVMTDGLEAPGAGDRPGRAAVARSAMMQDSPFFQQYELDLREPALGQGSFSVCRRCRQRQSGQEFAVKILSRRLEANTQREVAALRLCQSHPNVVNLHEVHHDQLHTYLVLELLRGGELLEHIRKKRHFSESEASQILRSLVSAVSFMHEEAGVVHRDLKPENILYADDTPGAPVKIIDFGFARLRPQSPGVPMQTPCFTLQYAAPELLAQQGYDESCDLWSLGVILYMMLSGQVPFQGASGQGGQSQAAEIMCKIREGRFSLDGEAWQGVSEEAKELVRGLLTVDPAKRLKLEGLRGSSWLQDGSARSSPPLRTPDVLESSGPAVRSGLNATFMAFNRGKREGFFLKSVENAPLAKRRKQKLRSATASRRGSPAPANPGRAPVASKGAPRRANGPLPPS
# Chain of MAP4K3 (human) (Q8IVH8 whole entry, looked up): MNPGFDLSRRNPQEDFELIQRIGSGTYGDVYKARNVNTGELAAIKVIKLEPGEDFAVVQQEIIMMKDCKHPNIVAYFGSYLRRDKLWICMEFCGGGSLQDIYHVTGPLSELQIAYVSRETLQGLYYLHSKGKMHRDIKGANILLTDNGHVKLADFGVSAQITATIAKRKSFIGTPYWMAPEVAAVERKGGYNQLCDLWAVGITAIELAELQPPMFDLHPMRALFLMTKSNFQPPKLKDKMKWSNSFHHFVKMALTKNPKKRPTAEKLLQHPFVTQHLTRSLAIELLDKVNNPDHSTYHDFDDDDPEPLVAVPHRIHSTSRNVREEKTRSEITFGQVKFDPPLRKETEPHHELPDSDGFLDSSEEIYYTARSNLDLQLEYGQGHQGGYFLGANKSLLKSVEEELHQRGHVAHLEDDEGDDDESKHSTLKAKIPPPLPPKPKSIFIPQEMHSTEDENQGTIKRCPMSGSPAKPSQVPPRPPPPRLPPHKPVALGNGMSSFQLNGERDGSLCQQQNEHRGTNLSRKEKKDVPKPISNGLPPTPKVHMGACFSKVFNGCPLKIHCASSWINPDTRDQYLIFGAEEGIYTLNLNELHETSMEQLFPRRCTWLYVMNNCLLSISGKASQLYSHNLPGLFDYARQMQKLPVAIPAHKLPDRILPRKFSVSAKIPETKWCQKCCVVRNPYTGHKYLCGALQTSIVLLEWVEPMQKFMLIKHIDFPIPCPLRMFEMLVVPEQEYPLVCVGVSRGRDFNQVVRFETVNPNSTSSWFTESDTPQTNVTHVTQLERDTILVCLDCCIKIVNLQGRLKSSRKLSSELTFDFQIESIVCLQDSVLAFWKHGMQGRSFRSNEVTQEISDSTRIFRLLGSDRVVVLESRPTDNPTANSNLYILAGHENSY
# Chain of FLT1 (human) (P17948 whole entry, looked up): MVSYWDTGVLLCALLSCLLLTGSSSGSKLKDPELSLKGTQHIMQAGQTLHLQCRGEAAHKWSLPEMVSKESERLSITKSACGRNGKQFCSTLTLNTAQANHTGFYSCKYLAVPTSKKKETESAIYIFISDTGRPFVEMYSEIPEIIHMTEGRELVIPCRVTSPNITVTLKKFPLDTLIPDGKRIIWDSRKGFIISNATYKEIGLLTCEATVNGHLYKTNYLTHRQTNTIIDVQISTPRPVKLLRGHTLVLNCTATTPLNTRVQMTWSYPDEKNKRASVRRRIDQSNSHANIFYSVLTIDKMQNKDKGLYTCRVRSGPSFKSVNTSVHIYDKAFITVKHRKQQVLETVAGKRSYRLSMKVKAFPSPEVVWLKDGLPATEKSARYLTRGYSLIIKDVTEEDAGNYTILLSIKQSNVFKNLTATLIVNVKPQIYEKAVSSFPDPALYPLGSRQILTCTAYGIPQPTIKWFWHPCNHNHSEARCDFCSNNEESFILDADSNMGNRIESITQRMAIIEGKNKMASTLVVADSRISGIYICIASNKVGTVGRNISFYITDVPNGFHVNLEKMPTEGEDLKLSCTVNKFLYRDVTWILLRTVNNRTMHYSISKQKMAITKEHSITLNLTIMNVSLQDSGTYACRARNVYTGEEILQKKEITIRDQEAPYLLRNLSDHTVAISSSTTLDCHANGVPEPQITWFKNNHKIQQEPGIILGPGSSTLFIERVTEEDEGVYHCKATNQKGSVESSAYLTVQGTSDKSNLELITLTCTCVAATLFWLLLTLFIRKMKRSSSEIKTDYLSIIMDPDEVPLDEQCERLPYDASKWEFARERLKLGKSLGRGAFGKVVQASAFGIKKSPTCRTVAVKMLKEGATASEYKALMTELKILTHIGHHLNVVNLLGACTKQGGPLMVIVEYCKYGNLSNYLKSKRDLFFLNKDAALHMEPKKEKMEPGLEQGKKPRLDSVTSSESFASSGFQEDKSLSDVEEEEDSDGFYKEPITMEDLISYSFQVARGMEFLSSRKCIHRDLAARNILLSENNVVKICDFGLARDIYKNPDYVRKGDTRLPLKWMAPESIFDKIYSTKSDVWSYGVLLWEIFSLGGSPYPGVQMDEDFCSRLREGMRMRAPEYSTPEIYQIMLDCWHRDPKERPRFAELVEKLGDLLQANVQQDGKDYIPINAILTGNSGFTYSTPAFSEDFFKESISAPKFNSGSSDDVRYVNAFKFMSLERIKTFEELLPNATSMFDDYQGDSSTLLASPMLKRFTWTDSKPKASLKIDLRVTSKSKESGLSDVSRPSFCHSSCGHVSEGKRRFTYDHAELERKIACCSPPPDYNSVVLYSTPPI
# Chain of SRC (human) (P12931 whole entry, looked up): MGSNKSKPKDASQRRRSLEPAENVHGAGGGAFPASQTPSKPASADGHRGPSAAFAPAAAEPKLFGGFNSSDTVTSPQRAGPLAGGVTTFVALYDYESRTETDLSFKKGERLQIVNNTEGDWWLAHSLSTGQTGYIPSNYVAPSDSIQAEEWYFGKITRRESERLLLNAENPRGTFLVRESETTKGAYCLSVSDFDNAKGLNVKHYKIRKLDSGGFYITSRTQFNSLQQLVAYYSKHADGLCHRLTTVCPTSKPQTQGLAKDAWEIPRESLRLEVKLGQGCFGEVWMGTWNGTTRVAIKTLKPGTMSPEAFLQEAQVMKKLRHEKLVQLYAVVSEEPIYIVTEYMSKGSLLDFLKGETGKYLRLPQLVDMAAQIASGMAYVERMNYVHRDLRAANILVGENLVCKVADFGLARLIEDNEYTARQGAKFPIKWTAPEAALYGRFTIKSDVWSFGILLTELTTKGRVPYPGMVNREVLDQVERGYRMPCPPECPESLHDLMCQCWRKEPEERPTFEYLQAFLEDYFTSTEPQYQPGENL
# Chain of STK10 (human) (O94804 whole entry, looked up): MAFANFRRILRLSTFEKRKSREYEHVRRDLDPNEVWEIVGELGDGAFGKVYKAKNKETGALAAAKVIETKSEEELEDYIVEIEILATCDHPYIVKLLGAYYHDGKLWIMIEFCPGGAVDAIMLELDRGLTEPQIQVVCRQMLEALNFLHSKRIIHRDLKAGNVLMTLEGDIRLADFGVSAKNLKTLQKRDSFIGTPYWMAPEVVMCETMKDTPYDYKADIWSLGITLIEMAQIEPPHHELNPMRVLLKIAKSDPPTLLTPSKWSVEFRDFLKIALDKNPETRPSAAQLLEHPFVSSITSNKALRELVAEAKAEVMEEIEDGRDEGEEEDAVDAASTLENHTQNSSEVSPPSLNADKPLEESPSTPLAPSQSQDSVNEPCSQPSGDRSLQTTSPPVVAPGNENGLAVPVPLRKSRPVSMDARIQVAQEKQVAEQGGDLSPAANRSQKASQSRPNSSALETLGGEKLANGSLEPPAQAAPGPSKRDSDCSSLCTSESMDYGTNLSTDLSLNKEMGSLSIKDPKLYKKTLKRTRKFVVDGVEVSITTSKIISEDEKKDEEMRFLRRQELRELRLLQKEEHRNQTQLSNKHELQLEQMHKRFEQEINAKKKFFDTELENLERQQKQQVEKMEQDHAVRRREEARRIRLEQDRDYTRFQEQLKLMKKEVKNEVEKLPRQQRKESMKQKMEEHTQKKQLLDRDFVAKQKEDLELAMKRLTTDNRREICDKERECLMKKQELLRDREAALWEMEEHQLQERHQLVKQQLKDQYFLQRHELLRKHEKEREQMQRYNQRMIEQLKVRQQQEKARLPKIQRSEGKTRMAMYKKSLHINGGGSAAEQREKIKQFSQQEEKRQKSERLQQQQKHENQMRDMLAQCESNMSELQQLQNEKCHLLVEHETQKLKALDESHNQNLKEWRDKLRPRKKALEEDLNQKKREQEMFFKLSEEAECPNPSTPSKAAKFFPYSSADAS
# Chain of MKNK2 (human) (Q9HBH9 whole entry, looked up): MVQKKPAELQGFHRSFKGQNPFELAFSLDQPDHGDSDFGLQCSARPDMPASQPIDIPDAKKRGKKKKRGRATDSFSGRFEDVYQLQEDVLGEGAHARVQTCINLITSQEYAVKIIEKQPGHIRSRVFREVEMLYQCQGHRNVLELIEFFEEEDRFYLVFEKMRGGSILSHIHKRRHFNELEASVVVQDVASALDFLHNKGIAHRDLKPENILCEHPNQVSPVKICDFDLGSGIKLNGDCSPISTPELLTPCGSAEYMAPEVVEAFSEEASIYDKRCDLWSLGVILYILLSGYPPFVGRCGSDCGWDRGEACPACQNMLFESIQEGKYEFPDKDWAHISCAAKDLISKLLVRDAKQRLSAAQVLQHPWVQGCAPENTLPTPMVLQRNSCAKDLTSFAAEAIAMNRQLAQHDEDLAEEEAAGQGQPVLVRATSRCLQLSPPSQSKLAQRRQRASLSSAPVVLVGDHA
"kinase still bound, per cent of control [1]","kinase still bound, per cent of control [2]","kinase still bound, per cent of control [3]","kinase still bound, per cent of control [4]","kinase still bound, per cent of control [5]","kinase still bound, per cent of control [6]","kinase still bound, per cent of control [7]","kinase still bound, per cent of control [8]","kinase still bound, per cent of control [9]","kinase still bound, per cent of control [10]","kinase still bound, per cent of control [11]","kinase still bound, per cent of control [12]","kinase still bound, per cent of control [13]","kinase still bound, per cent of control [14]","kinase still bound, per cent of control [15]","kinase still bound, per cent of control [16]","kinase still bound, per cent of control [17]","kinase still bound, per cent of control [18]","kinase still bound, per cent of control [20]","kinase still bound, per cent of control [21]",other results,Structure (SMILES)
100%,100%,100%,100%,100%,100%,100%,100%,100%,100%,100%,100%,100%,100%,100%,100%,100%,100%,100%,100%,"kinase still bound, per cent of control [19]: 100%; kinase still bound, per cent of control [22]: 100%; kinase still bound, per cent of control [23]: 100%; kinase still bound, per cent of control [24]: 100%; kinase still bound, per cent of control [25]: 100%; kinase still bound, per cent of control [26]: 100%; kinase still bound, per cent of control [27]: 100%; kinase still bound, per cent of control [28]: 100%; kinase still bound, per cent of control [29]: 100%; kinase still bound, per cent of control [30]: 100%; kinase still bound, per cent of control [31]: 100%; kinase still bound, per cent of control [32]: 100%; kinase still bound, per cent of control [33]: 100%; kinase still bound, per cent of control [34]: 100%; kinase still bound, per cent of control [35]: 100%; kinase still bound, per cent of control [36]: 100%; kinase still bound, per cent of control [37]: 100%",CS(=O)(=O)N1CCN(Cc2cc3nc(-c4cccc5[nH]ncc45)nc(N4CCOCC4)c3s2)CC1
100%,100%,100%,17% and 4.8%,100%,100%,100%,100%,16%,100%,100%,100%,3.8%,100%,100%,100%,100%,100%,100%,0%,"kinase still bound, per cent of control [38]: 100%; kinase still bound, per cent of control [19]: 34%; kinase still bound, per cent of control [22]: 100%; kinase still bound, per cent of control [23]: 100%; kinase still bound, per cent of control [24]: 100%; kinase still bound, per cent of control [25]: 2%; kinase still bound, per cent of control [26]: 100%; kinase still bound, per cent of control [27]: 100%; kinase still bound, per cent of control [28]: 100%; kinase still bound, per cent of control [29]: 100%; kinase still bound, per cent of control [30]: 100%; kinase still bound, per cent of control [31]: 100%; kinase still bound, per cent of control [32]: 100%; kinase still bound, per cent of control [33]: 100%; kinase still bound, per cent of control [34]: 100%; kinase still bound, per cent of control [35]: 100%; kinase still bound, per cent of control [36]: 100%; kinase still bound, per cent of control [37]: 100%",COc1cc(N2CCN(C)CC2)ccc1Nc1ncc2c(n1)N(C)c1ccccc1C(=O)N2C
100%,100%,33%,0.65%,5.2%,100%,100%,8.9%,30%,0%,100%,2.2%,100%,1.8%,100%,1.6%,100%,100%,13%,100%,"kinase still bound, per cent of control [38]: 100%; kinase still bound, per cent of control [22]: 13%; kinase still bound, per cent of control [23]: 1.8%; kinase still bound, per cent of control [24]: 1%; kinase still bound, per cent of control [25]: 2%; kinase still bound, per cent of control [26]: 100%; kinase still bound, per cent of control [27]: 0.05%; kinase still bound, per cent of control [28]: 0.65%; kinase still bound, per cent of control [29]: 0.15%; kinase still bound, per cent of control [30]: 100%; kinase still bound, per cent of control [31]: 0.25%; kinase still bound, per cent of control [33]: 22%; kinase still bound, per cent of control [34]: 100%; kinase still bound, per cent of control [35]: 100%; kinase still bound, per cent of control [36]: 100%; kinase still bound, per cent of control [37]: 100%",CNC(=O)c1ccc(Nc2cc(Nc3ccccc3S(=O)(=O)C(C)C)c3cc[nH]c3n2)nc1
